Measured values from the NIST ThermoML archive (doi:10.1021/acs.jced.5b01031).
“And” between values parts separate entries of the source, which are not always exact repeats. Identical values can stand only once. Numbers after ± are expanded uncertainties.

Assay: mn = molality of the nth substance listed, in mol/kg
Conditions: 81.5 kPa, Liquid; for mass density: Vibrating tube method; for viscosity: Capillary tube (Ostwald / Ubbelohde) method

SMILES: NCC(=O)O [2-aminoacetic acid] + O
- mass density (303.15 K, m1 = 0.1001): 998.79 ± 0.3 kg/m3
- mass density (303.15 K, m1 = 0.1498): 1000.34 ± 0.3 kg/m3
- mass density (303.15 K, m1 = 0.1998): 1001.88 ± 0.3 kg/m3
- mass density (303.15 K, m1 = 0.2497): 1003.42 ± 0.3 kg/m3
- mass density (303.15 K, m1 = 0.2999): 1004.95 ± 0.3 kg/m3
- mass density (303.15 K, m1 = 0.3502): 1006.44 ± 0.3 kg/m3
- mass density (303.15 K, m1 = 0.4005): 1007.94 ± 0.3 kg/m3
- mass density (303.15 K, m1 = 0.45): 1009.44 ± 0.3 kg/m3
- mass density (303.15 K, m1 = 0.4993): 1010.87 ± 0.3 kg/m3
- mass density (308.15 K, m1 = 0.1001): 997.12 ± 0.3 kg/m3
- mass density (308.15 K, m1 = 0.1998): 1000.16 ± 0.3 kg/m3
- mass density (308.15 K, m1 = 0.2497): 1001.68 ± 0.3 kg/m3
- mass density (308.15 K, m1 = 0.2999): 1003.19 ± 0.3 kg/m3
- mass density (308.15 K, m1 = 0.3502): 1004.66 ± 0.3 kg/m3
- mass density (308.15 K, m1 = 0.4005): 1006.15 ± 0.3 kg/m3
- mass density (308.15 K, m1 = 0.45): 1007.62 ± 0.3 kg/m3
- mass density (308.15 K, m1 = 0.4993): 1009.05 ± 0.3 kg/m3
- mass density (313.15 K, m1 = 0.1001): 995.14 ± 0.3 kg/m3
- mass density (313.15 K, m1 = 0.1498): 996.61 ± 0.3 kg/m3
- mass density (313.15 K, m1 = 0.1998): 998.06 ± 0.3 kg/m3
- mass density (313.15 K, m1 = 0.2497): 999.5 ± 0.3 kg/m3
- mass density (313.15 K, m1 = 0.2999): 1000.94 ± 0.3 kg/m3
- mass density (313.15 K, m1 = 0.3502): 1002.34 ± 0.3 kg/m3
- mass density (313.15 K, m1 = 0.4005): 1003.74 ± 0.3 kg/m3
- mass density (313.15 K, m1 = 0.45): 1005.12 ± 0.3 kg/m3
- mass density (313.15 K, m1 = 0.4993): 1006.46 ± 0.3 kg/m3

SMILES: C[C@H](N)C(=O)O [(S)-2-aminopropanoic acid] + O
- mass density (303.15 K, m1 = 0.1001): 998.46 ± 0.3 kg/m3
- mass density (303.15 K, m1 = 0.1501): 999.85 ± 0.3 kg/m3
- mass density (303.15 K, m1 = 0.1998): 1001.23 ± 0.3 kg/m3
- mass density (303.15 K, m1 = 0.2502): 1002.6 ± 0.3 kg/m3
- mass density (303.15 K, m1 = 0.3): 1003.96 ± 0.3 kg/m3
- mass density (303.15 K, m1 = 0.3501): 1005.32 ± 0.3 kg/m3
- mass density (303.15 K, m1 = 0.3986): 1006.62 ± 0.3 kg/m3
- mass density (303.15 K, m1 = 0.4493): 1007.97 ± 0.3 kg/m3
- mass density (303.15 K, m1 = 0.4994): 1009.28 ± 0.3 kg/m3
- mass density (308.15 K, m1 = 0.1001): 996.83 ± 0.3 kg/m3
- mass density (308.15 K, m1 = 0.1501): 998.21 ± 0.3 kg/m3
- mass density (308.15 K, m1 = 0.1998): 999.58 ± 0.3 kg/m3
- mass density (308.15 K, m1 = 0.2502): 1000.94 ± 0.3 kg/m3
- mass density (308.15 K, m1 = 0.3): 1002.29 ± 0.3 kg/m3
- mass density (308.15 K, m1 = 0.3501): 1003.64 ± 0.3 kg/m3
- mass density (308.15 K, m1 = 0.3986): 1004.93 ± 0.3 kg/m3
- mass density (308.15 K, m1 = 0.4493): 1006.27 ± 0.3 kg/m3
- mass density (308.15 K, m1 = 0.4994): 1007.56 ± 0.3 kg/m3
- mass density (313.15 K, m1 = 0.1001): 995 ± 0.3 kg/m3
- mass density (313.15 K, m1 = 0.1501): 996.39 ± 0.3 kg/m3
- mass density (313.15 K, m1 = 0.1998): 997.76 ± 0.3 kg/m3
- mass density (313.15 K, m1 = 0.2502): 999.11 ± 0.3 kg/m3
- mass density (313.15 K, m1 = 0.3): 1000.45 ± 0.3 kg/m3
- mass density (313.15 K, m1 = 0.3501): 1001.77 ± 0.3 kg/m3
- mass density (313.15 K, m1 = 0.3986): 1003.07 ± 0.3 kg/m3
- mass density (313.15 K, m1 = 0.4493): 1004.36 ± 0.3 kg/m3
- mass density (313.15 K, m1 = 0.4994): 1005.62 ± 0.3 kg/m3

SMILES: CC(C)[C@H](N)C(=O)O [L-valine] + O
- mass density (303.15 K, m1 = 0.1004): 998.27 ± 0.3 kg/m3
- mass density (303.15 K, m1 = 0.1489): 999.57 ± 0.3 kg/m3
- mass density (303.15 K, m1 = 0.1996): 1000.84 ± 0.3 kg/m3
- mass density (303.15 K, m1 = 0.2497): 1002.1 ± 0.3 kg/m3
- mass density (303.15 K, m1 = 0.3001): 1003.33 ± 0.3 kg/m3
- mass density (303.15 K, m1 = 0.3488): 1004.55 ± 0.3 kg/m3
- mass density (303.15 K, m1 = 0.3995): 1005.74 ± 0.3 kg/m3
- mass density (303.15 K, m1 = 0.4501): 1006.93 ± 0.3 kg/m3
- mass density (303.15 K, m1 = 0.4989): 1008.09 ± 0.3 kg/m3
- mass density (308.15 K, m1 = 0.1004): 996.63 ± 0.3 kg/m3
- mass density (308.15 K, m1 = 0.1489): 997.9 ± 0.3 kg/m3
- mass density (308.15 K, m1 = 0.1996): 999.16 ± 0.3 kg/m3
- mass density (308.15 K, m1 = 0.2497): 1000.41 ± 0.3 kg/m3
- mass density (308.15 K, m1 = 0.3001): 1001.63 ± 0.3 kg/m3
- mass density (308.15 K, m1 = 0.3488): 1002.84 ± 0.3 kg/m3
- mass density (308.15 K, m1 = 0.3995): 1004.02 ± 0.3 kg/m3
- mass density (308.15 K, m1 = 0.4501): 1005.2 ± 0.3 kg/m3
- mass density (308.15 K, m1 = 0.4989): 1006.34 ± 0.3 kg/m3
- mass density (313.15 K, m1 = 0.1004): 994.92 ± 0.3 kg/m3
- mass density (313.15 K, m1 = 0.1489): 996.25 ± 0.3 kg/m3
- mass density (313.15 K, m1 = 0.1996): 997.55 ± 0.3 kg/m3
- mass density (313.15 K, m1 = 0.2497): 998.83 ± 0.3 kg/m3
- mass density (313.15 K, m1 = 0.3001): 1000.05 ± 0.3 kg/m3
- mass density (313.15 K, m1 = 0.3488): 1001.27 ± 0.3 kg/m3
- mass density (313.15 K, m1 = 0.3995): 1002.46 ± 0.3 kg/m3
- mass density (313.15 K, m1 = 0.4501): 1003.61 ± 0.3 kg/m3
- mass density (313.15 K, m1 = 0.4989): 1004.75 ± 0.3 kg/m3

SMILES: O=C([O-])c1ccccc1.[Na+] [sodium benzoate] + O
- viscosity (303.15 K, m1 = 0.1011): 0.845 ± 0.08 mPa·s and 0.84 ± 0.08 mPa·s
- viscosity (303.15 K, m1 = 0.3088): 0.92 ± 0.08 mPa·s and 0.926 ± 0.08 mPa·s and 0.931 ± 0.08 mPa·s
- viscosity (303.15 K, m1 = 0.5245): 1.024 ± 0.08 mPa·s and 1.013 ± 0.08 mPa·s and 1.019 ± 0.08 mPa·s
- mass density (303.15 K, m1 = 0.1011): 1001.3 ± 0.3 kg/m3 and 1001.31 ± 0.3 kg/m3
- mass density (303.15 K, m1 = 0.3088): 1012.46 ± 0.3 kg/m3 and 1012.49 ± 0.3 kg/m3
- mass density (303.15 K, m1 = 0.5245): 1023.61 ± 0.3 kg/m3 and 1023.59 ± 0.3 kg/m3 and 1023.51 ± 0.3 kg/m3
- viscosity (308.15 K, m1 = 0.1011): 0.757 ± 0.08 mPa·s and 0.758 ± 0.08 mPa·s
- viscosity (308.15 K, m1 = 0.3088): 0.821 ± 0.08 mPa·s and 0.837 ± 0.08 mPa·s
- viscosity (308.15 K, m1 = 0.5245): 0.918 ± 0.08 mPa·s and 0.912 ± 0.08 mPa·s
- mass density (308.15 K, m1 = 0.1011): 999.49 ± 0.3 kg/m3 and 999.34 ± 0.3 kg/m3 and 999.62 ± 0.3 kg/m3
- mass density (308.15 K, m1 = 0.3088): 1010.59 ± 0.3 kg/m3 and 1010.54 ± 0.3 kg/m3 and 1010.6 ± 0.3 kg/m3
- mass density (308.15 K, m1 = 0.5245): 1021.52 ± 0.3 kg/m3 and 1021.61 ± 0.3 kg/m3 and 1021.49 ± 0.3 kg/m3
- viscosity (313.15 K, m1 = 0.1011): 0.686 ± 0.08 mPa·s and 0.691 ± 0.08 mPa·s
- viscosity (313.15 K, m1 = 0.3088): 0.748 ± 0.08 mPa·s and 0.753 ± 0.08 mPa·s
- viscosity (313.15 K, m1 = 0.5245): 0.806 ± 0.08 mPa·s and 0.812 ± 0.08 mPa·s and 0.817 ± 0.08 mPa·s
- mass density (313.15 K, m1 = 0.1011): 997.41 ± 0.3 kg/m3 and 997.51 ± 0.3 kg/m3
- mass density (313.15 K, m1 = 0.3088): 1008.16 ± 0.3 kg/m3 and 1008.27 ± 0.3 kg/m3 and 1008.53 ± 0.3 kg/m3
- mass density (313.15 K, m1 = 0.5245): 1019.94 ± 0.3 kg/m3
